Reference: patent US12702650B2, “Methods and compositions for treating smith-magenis syndrome” (The Regents of the University of California, priority 2019, dated 2026)

Key:
[1] = tested on: Lgl1^+/− mice; experiment: three-chamber social interaction test after NMDAR blocker injection; format: in vivo, mouse
Description: Pharmacological blockers of NMDARs were used, and animals tested in the three-chamber social interaction test.
Social interaction test—The social interaction test was performed as previously described (Yang et al., 2011). The sociability apparatus (Stoetling) has three 20 cm×40 cm chambers and two target enclosures 7 cm in diameter and 15 cm tall. During testing, the apparatus was surrounded by opaque panels to prevent mice from seeing out of the apparatus.
Animals were placed in the center chamber of the 3-chambered sociability apparatus with the doors between chambers closed for 10 minutes to habituate to the testing conditions. The doors were removed, and mice were allowed to explore the full field for 10 minutes. Non-littermate strain- and age-matched target mice from a separate cage were introduced during the social interaction phase of the test. For the social novelty phase, target mice from the social interaction phase were kept in the same location and a novel target mouse was introduced to the opposite chamber. For scoring of interaction time, ROIs containing the target mouse and novel object were selected in MATLAB. ROIs were selected by experimenters blinded to the animal genotypes or virus treatment.
Scoring for distance travelled and thigmotaxis during the open field test, as well as time spent interacting with objects in the Novel Object Recognition test and time spent interacting with target mice and objects in the Social Interaction test was performed using Autotyping 15.04 in MATLAB 2014b (Patel et al., 2014)(MathWorks).

[2] = tested on: Lgl1^+/− mice; experiment: nestlet shredding (stereotyped repetitive behavior); format: in vivo, mouse; conditions: Lgl1^+/+ and Lgl1^+/− mice; ketamine injection vs saline
Description: Nestlet shredding—Mice were removed from their home cage and placed individually into a clean novel cage containing a weighed piece of cotton nesting material of approximately 2.8 g. Mice were left in the cage for 60 minutes. At the end of the testing period, mice were returned to their home cage. Shredded material was separated from the undisturbed portion, which was weighed (Li et al., 2006).

## C[C@]12N[C@H](Cc3ccccc31)c1ccccc12 [MK-801, dizocilpine]
[1]; intraperitoneal injection of 0.3 mg/kg MK-801
  preference for social interaction (social interaction phase): strongly preferred social interaction

## CNC1(c2ccccc2Cl)CCCCC1=O (stereo not shown) [ketamine]
[1]; intraperitoneal injection of 30 mg/kg ketamine, compared with control animals
  preference for social interaction (social interaction phase): clear preference for social interaction
[2]
  nestlet-shredding activity: did not change

## CC12CC3CC(C)(C1)CC(N)(C3)C2 [memantine]
[1]; intraperitoneal injection of 20 mg/kg memantine
  preference for social interaction (social interaction phase): strongly preferred social interaction
